Ki data for 13 molecules are collected here from ChEMBL document CHEMBL3352763, “Selective inhibition of human carbonic anhydrases by novel amide derivatives of probenecid: synthesis, biological evaluation and molecular modelling studies” (Bioorg Med Chem, 2014).

The target in one assay is Carbonic anhydrase 2 (Homo sapiens, UniProt P00918). Put plainly: Inhibition of recombinant human carbonic anhydrase 2 after 15 mins by stopped flow CO2 hydration assay.
The next assay addresses Carbonic anhydrase 9 (Homo sapiens, UniProt Q16790). Description: Inhibition of recombinant human carbonic anhydrase 9 after 15 mins by stopped flow CO2 hydration assay.
A further assay deals with Carbonic anhydrase 1 (Homo sapiens, UniProt P00915). Put plainly: Inhibition of recombinant human carbonic anhydrase 1 after 15 mins by stopped flow CO2 hydration assay.
Chain of Carbonic anhydrase 1 (P00915 whole entry): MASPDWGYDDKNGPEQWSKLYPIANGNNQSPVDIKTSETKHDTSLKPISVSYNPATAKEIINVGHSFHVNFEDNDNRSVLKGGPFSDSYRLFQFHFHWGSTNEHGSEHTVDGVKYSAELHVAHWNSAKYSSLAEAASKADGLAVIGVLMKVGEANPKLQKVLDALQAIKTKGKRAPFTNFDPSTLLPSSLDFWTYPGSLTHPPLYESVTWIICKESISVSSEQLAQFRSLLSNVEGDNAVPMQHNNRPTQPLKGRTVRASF
The target in the next assay is Carbonic anhydrase 12 (Homo sapiens, UniProt O43570). Put plainly: Inhibition of recombinant human carbonic anhydrase 12 after 15 mins by stopped flow CO2 hydration assay.
Chain of Carbonic anhydrase 12 (O43570 whole entry): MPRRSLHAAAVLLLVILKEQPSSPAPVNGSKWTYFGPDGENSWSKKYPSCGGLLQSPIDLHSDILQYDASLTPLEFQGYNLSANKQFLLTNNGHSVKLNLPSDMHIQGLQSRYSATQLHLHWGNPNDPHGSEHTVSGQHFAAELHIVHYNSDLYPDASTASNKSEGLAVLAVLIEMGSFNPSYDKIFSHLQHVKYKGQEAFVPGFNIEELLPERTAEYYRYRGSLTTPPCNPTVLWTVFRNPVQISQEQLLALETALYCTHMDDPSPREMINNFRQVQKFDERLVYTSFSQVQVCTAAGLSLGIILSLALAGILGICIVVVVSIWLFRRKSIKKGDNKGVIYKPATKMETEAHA

As to `CCCN(CCC)S(=O)(=O)c1ccc(C(=O)Nc2nncs2)cc1`, the values for the Ki on Carbonic anhydrase 2 and at Carbonic anhydrase 9 were greater than 10 µM and 216 nM, respectively.

In the case of `CCCN(CCC)S(=O)(=O)c1ccc(C(=O)Nc2ccccc2N)cc1`, the Ki (in general, a measure of affinity in units of concentration, obtained from inhibition or displacement) at Carbonic anhydrase 2 is greater than 10 µM; on Carbonic anhydrase 9, 223 nM.

In the case of `CCCN(CCC)S(=O)(=O)c1ccc(C(=O)Nc2cccc([N+](=O)[O-])c2)cc1`, the Ki on Carbonic anhydrase 2 is greater than 10 µM; on Carbonic anhydrase 9, 265 nM.

Turning to `CCCN(CCC)S(=O)(=O)c1ccc(C(=O)Nc2ccccn2)cc1`, the Ki on Carbonic anhydrase 2 is greater than 10 µM; on Carbonic anhydrase 9 it was 228 nM.

Turning to `CCCN(CCC)S(=O)(=O)c1ccc(C(=O)NCCN2CCOCC2)cc1`, the Ki on Carbonic anhydrase 2 is greater than 10 µM; on Carbonic anhydrase 9, 251 nM.

Take `CCCN(CCC)S(=O)(=O)c1ccc(C(=O)Nc2ccc(Cl)cc2)cc1`: the inhibition constant Ki on Carbonic anhydrase 2 is greater than 10 µM; at Carbonic anhydrase 9, 243 nM.

Regarding `CCCN(CCC)S(=O)(=O)c1ccc(C(=O)NC)cc1`, the Ki at Carbonic anhydrase 2 was greater than 10 µM; at Carbonic anhydrase 9, 165 nM.

As to `CCCN(CCC)S(=O)(=O)c1ccc(C(=O)O)cc1` [PROBENECID], the Ki on Carbonic anhydrase 1 was greater than 10 µM; at Carbonic anhydrase 2, 0.431 µM; on Carbonic anhydrase 9 it was 360 nM; at Carbonic anhydrase 12 it was 1240 nM.

As for `CCCN(CCC)S(=O)(=O)c1ccc(C(=O)NC2CCCCC2C)cc1` (configuration not stated), the results for the Ki at Carbonic anhydrase 2 and at Carbonic anhydrase 9 were greater than 10 µM and 260 nM, respectively.

On to `CCCN(CCC)S(=O)(=O)c1ccc(C(=O)Nc2ccccc2[N+](=O)[O-])cc1`, for which the Ki at Carbonic anhydrase 2 was greater than 10 µM.

For the molecule `CCCN(CCC)S(=O)(=O)c1ccc(C(=O)Nc2cccc(Cl)c2)cc1`, the Ki on Carbonic anhydrase 2 is greater than 10 µM; at Carbonic anhydrase 9, 198 nM.

For the molecule `CCCN(CCC)S(=O)(=O)c1ccc(C(=O)Nc2ccccc2)cc1`, the figures for the Ki at Carbonic anhydrase 2 and at Carbonic anhydrase 9 were greater than 10 µM and 171 nM, respectively.

As to `CCCN(CCC)S(=O)(=O)c1ccc(C(=O)NC2CCCCC2)cc1`, the Ki at Carbonic anhydrase 2 was greater than 10 µM; at Carbonic anhydrase 9, 234 nM.
